Measured values taken from US5773573A, “HIV peptides” (priority 1994, dated 1998).
Residues, ends and D or L forms follow the SMILES beside them.

Assay: White cell and T cell subset counts (CD4, CD8, NK) in HIV infected patient given HEP1
Format: in vivo, human
Conditions: patient three
Experimental: The objective of this study was to determine in an HIV infected patient if the induction of immunological tolerance to HEP1 could reduce immune activation and HIV infection. The design of the first clinical experiment was to orally administer HEP1 to the patient in daily 10 mg doses (the lower end of the preferred dose range). This was then followed approximately three months later with a subcutaneous administration of HEP1 at a higher dose of 140 mg. To assess the therapeutic benefit of HEP1, the following disease progression markers were measured by taking blood samples before, during and after each trial and determining: HIV levels by a p24 antigen assay, HIV infectivity by a cellular TCID assay and immune activation by quantitating levels of various lymphocytes.
T cell subsets were measured by adding a whole blood sample to a 4.5 ml tube containing EDTA and staining with monoclonal antibodies to CD3, CD4 and CD8. The percentage of T cells in Peripheral Blood Lymphocytes were determined by flow-cytometric procedures. The numbers of CD4 and CD8 T cells were determined by obtaining total and differential white-cell counts and multiplying by the appropriate factor obtained on flow cytometry.
The following markers of HIV disease progression were assayed: p24Ag (the concentration of HIV p24 protein in picogram/ml in the blood), TCID (the infectivity of the HIV in the cells of blood sample measured by an in vitro cell culture assay in which a serial dilution of the sample was mixed with activated uninfected PBMC and the level of HIV infection determined by p24Ag assay), total white count (immune activation measured by the number of white cells per mm^3), CD4 (the number of CD4 positive cells per mm^3), CD8 (the number of CD8 positive cells per mm^3), NK (the number of Natural Killer cells per mm^3), Lymphocytes (the number of cells per mm^3), Monocytes (the number of cells per mm^3), and Granulocytes (the number of cells per mm^3). Normalised data was calculated by dividing each data point by the value of its data series on day 1 of the trail and multiplying by 100.

[1] = oral HEP1 10 mg daily day 2-22, day 1, before first dose
[2] = oral HEP1 10 mg daily day 2-22, day 7, during treatment
[3] = oral HEP1 10 mg daily day 2-22, day 14, during treatment
[4] = oral HEP1 10 mg daily day 2-22, day 21, during treatment
[5] = oral HEP1 10 mg daily day 2-22, day 28, after treatment
[6] = oral HEP1 10 mg daily day 2-22, day-69, before treatment
[7] = orally administered HEP1 10 mg daily
[8] = single subcutaneous HEP1 dose on day 1, day 1*, four hours after injection
[9] = single subcutaneous HEP1 dose on day 1, day 1, before injection
[10] = single subcutaneous HEP1 dose on day 1, day 6, after injection
[11] = single subcutaneous HEP1 dose on day 1, day-7, before treatment
[12] = single subcutaneous HEP1 dose on day 1, day-56, before treatment
[13] = single subcutaneous HEP1 dose on day 1, day-91, end of oral study
[14] = subcutaneous administration of one larger dose of HEP1

## CC(C)[C@H](NC(=O)[C@@H](NC(=O)[C@H](CCC(=O)O)NC(=O)[C@H](CCCNC(=N)N)NC(=O)[C@H](CCCNC(=N)N)NC(=O)[C@H](CCCCN)NC(=O)[C@H](CCCCN)NC(=O)[C@H](CCC(=O)O)NC(=O)[C@@H](N)[C@@H](C)O)[C@@H](C)O)C(=O)N[C@@H](CCC(=O)O)C(=O)N[C@@H](CCCNC(=N)N)C(=O)N[C@@H](CCC(=O)O)C(=O)N[C@@H](CCCCN)C(=O)N[C@@H](CCC(=O)O)C(=O)O [HEP1, NH2 ThrGluLysLysArgArgGluThrValGluArgGluLysGluCOOH] (H-TEKKRRETVEREKE-OH)
[1]
  % Granulocytes: 76.1%
  % Granulocytes, normalised data (day 1 = 100): 100
  % Lymphocytes: 17.8%
  % Lymphocytes, normalised data (day 1 = 100): 100
  % Monocytes: 6.1%
  % Monocytes, normalised data (day 1 = 100): 100
  CD4: 80 cells per mm^3
  CD4, normalised data (day 1 = 100): 100
  CD8: 900 cells per mm^3
  CD8, normalised data (day 1 = 100): 100
  Granulocytes: 6230 cells per mm^3
  Lymphocytes: 1480 cells per mm^3
  Lymphocytes, normalised data (day 1 = 100): 100
  Monocytes: 570 cells per mm^3
  Monocytes, normalised data (day 1 = 100): 100
  NK: 30 cells per mm^3
  NK, normalised data (day 1 = 100): 100
  White count: 8200 cells per mm^3
  White count, normalised data (day 1 = 100): 100
[2]
  % Granulocytes: 81.4%
  % Granulocytes, normalised data (day 1 = 100): 107
  % Lymphocytes: 15.5%
  % Lymphocytes, normalised data (day 1 = 100): 87
  % Monocytes: 3.1%
  % Monocytes, normalised data (day 1 = 100): 51
  CD4: 80 cells per mm^3
  CD4, normalised data (day 1 = 100): 100
  CD8: 850 cells per mm^3
  CD8, normalised data (day 1 = 100): 94
  Granulocytes: 6560 cells per mm^3
  Granulocytes, normalised data (day 1 = 100): 105
  Lymphocytes: 1150 cells per mm^3
  Lymphocytes, normalised data (day 1 = 100): 78
  Monocytes: 490 cells per mm^3
  Monocytes, normalised data (day 1 = 100): 86
  NK: 30 cells per mm^3
  NK, normalised data (day 1 = 100): 100
  White count: 8200 cells per mm^3
  White count, normalised data (day 1 = 100): 100
[3]
  % Granulocytes: 76.8%
  % Granulocytes, normalised data (day 1 = 100): 101
  % Lymphocytes: 16.8%
  % Lymphocytes, normalised data (day 1 = 100): 94
  % Monocytes: 6.4%
  % Monocytes, normalised data (day 1 = 100): 105
  CD4: 90 cells per mm^3
  CD4, normalised data (day 1 = 100): 113
  CD8: 900 cells per mm^3
  CD8, normalised data (day 1 = 100): 100
  Granulocytes: 5620 cells per mm^3
  Granulocytes, normalised data (day 1 = 100): 90
  Lymphocytes: 1460 cells per mm^3
  Lymphocytes, normalised data (day 1 = 100): 99
  Monocytes: 620 cells per mm^3
  Monocytes, normalised data (day 1 = 100): 109
  NK: 40 cells per mm^3
  NK, normalised data (day 1 = 100): 133
  White count: 7700 cells per mm^3
  White count, normalised data (day 1 = 100): 94
[4]
  % Granulocytes: 76.2%
  % Granulocytes, normalised data (day 1 = 100): 100
  % Lymphocytes: 18.6%
  % Lymphocytes, normalised data (day 1 = 100): 104
  % Monocytes: 5.2%
  % Monocytes, normalised data (day 1 = 100): 85
  CD4: 80 cells per mm^3
  CD4, normalised data (day 1 = 100): 100
  CD8: 910 cells per mm^3
  CD8, normalised data (day 1 = 100): 101
  Granulocytes: 5100 cells per mm^3
  Granulocytes, normalised data (day 1 = 100): 82
  Lymphocytes: 1160 cells per mm^3
  Lymphocytes, normalised data (day 1 = 100): 78
  Monocytes: 540 cells per mm^3
  Monocytes, normalised data (day 1 = 100): 95
  NK: 40 cells per mm^3
  NK, normalised data (day 1 = 100): 133
  White count: 6800 cells per mm^3
  White count, normalised data (day 1 = 100): 83
[5]
  % Granulocytes: 74.5%
  % Granulocytes, normalised data (day 1 = 100): 98
  % Lymphocytes: 20%
  % Lymphocytes, normalised data (day 1 = 100): 112
  % Monocytes: 5.5%
  % Monocytes, normalised data (day 1 = 100): 90
  CD4: 80 cells per mm^3
  CD4, normalised data (day 1 = 100): 100
  CD8: 730 cells per mm^3
  CD8, normalised data (day 1 = 100): 81
  Granulocytes: 4020 cells per mm^3
  Granulocytes, normalised data (day 1 = 100): 65
  Lymphocytes: 1050 cells per mm^3
  Lymphocytes, normalised data (day 1 = 100): 71
  Monocytes: 440 cells per mm^3
  Monocytes, normalised data (day 1 = 100): 77
  NK: 20 cells per mm^3
  NK, normalised data (day 1 = 100): 67
  White count: 5500 cells per mm^3
  White count, normalised data (day 1 = 100): 67
[6]
  % Granulocytes: 80.4%
  % Granulocytes, normalised data (day 1 = 100): 106
  % Lymphocytes: 15.4%
  % Lymphocytes, normalised data (day 1 = 100): 87
  % Monocytes: 4.2%
  % Monocytes, normalised data (day 1 = 100): 96
  CD4: 90 cells per mm^3
  CD4, normalised data (day 1 = 100): 113
  CD8: 850 cells per mm^3
  CD8, normalised data (day 1 = 100): 94
  Granulocytes: 6000 cells per mm^3
  Granulocytes, normalised data (day 1 = 100): 96
  Lymphocytes: 1260 cells per mm^3
  Lymphocytes, normalised data (day 1 = 100): 85
  Monocytes: 630 cells per mm^3
  Monocytes, normalised data (day 1 = 100): 111
  NK: 20 cells per mm^3
  NK, normalised data (day 1 = 100): 67
  White count: 7900 cells per mm^3
  White count, normalised data (day 1 = 100): 96
[7]
  CD4 count, course: no significant increase
  CD8, course: increased during treatment
  total white cell count, course (immune activation): fell during and after treatment and fall
[8]
  % Granulocytes: 55%
  % Granulocytes, normalised data (day 1 = 100): 80
  % Lymphocytes: 33%
  % Lymphocytes, normalised data (day 1 = 100): 142
  % Monocytes: 11%
  % Monocytes, normalised data (day 1 = 100): 138
  CD4: 120 cells per mm^3
  CD4, normalised data (day 1 = 100): 150
  CD8: 1130 cells per mm^3
  CD8, normalised data (day 1 = 100): 128
  Granulocytes: 2530 cells per mm^3
  Granulocytes, normalised data (day 1 = 100): 66
  Lymphocytes: 1520 cells per mm^3
  Lymphocytes, normalised data (day 1 = 100): 118
  Monocytes: 510 cells per mm^3
  Monocytes, normalised data (day 1 = 100): 113
  NK: 30 cells per mm^3
  NK, normalised data (day 1 = 100): 267
  White count: 4600 cells per mm^3
  White count, normalised data (day 1 = 100): 82
[9]
  % Granulocytes: 69%
  % Granulocytes, normalised data (day 1 = 100): 100
  % Lymphocytes: 23.3%
  % Lymphocytes, normalised data (day 1 = 100): 100
  % Monocytes: 8%
  % Monocytes, normalised data (day 1 = 100): 100
  CD4: 80 cells per mm^3
  CD4, normalised data (day 1 = 100): 100
  CD8: 880 cells per mm^3
  CD8, normalised data (day 1 = 100): 100
  Granulocytes: 3860 cells per mm^3
  Granulocytes, normalised data (day 1 = 100): 100
  Lymphocytes: 1290 cells per mm^3
  Lymphocytes, normalised data (day 1 = 100): 100
  Monocytes: 450 cells per mm^3
  Monocytes, normalised data (day 1 = 100): 100
  NK: 30 cells per mm^3
  NK, normalised data (day 1 = 100): 100
  White count: 5600 cells per mm^3
  White count, normalised data (day 1 = 100): 100
[10]
  % Lymphocytes: 22.2%
  CD4: 80 cells per mm^3
  CD4, normalised data (day 1 = 100): 100
  CD8: 780 cells per mm^3
  CD8, normalised data (day 1 = 100): 89
  White count: 5400 cells per mm^3
  White count, normalised data (day 1 = 100): 96
[11]
  % Granulocytes: 81%
  % Granulocytes, normalised data (day 1 = 100): 117
  % Lymphocytes: 12.9%
  % Lymphocytes, normalised data (day 1 = 100): 55
  % Monocytes: 7%
  % Monocytes, normalised data (day 1 = 100): 88
  CD4: 70 cells per mm^3
  CD4, normalised data (day 1 = 100): 88
  CD8: 670 cells per mm^3
  CD8, normalised data (day 1 = 100): 76
  Granulocytes: 6640 cells per mm^3
  Granulocytes, normalised data (day 1 = 100): 172
  Lymphocytes: 980 cells per mm^3
  Lymphocytes, normalised data (day 1 = 100): 76
  Monocytes: 570 cells per mm^3
  Monocytes, normalised data (day 1 = 100): 127
  NK: 40 cells per mm^3
  NK, normalised data (day 1 = 100): 133
  White count: 8200 cells per mm^3
  White count, normalised data (day 1 = 100): 146
[12]
  % Granulocytes: 75%
  % Granulocytes, normalised data (day 1 = 100): 109
  % Lymphocytes: 19%
  % Lymphocytes, normalised data (day 1 = 100): 82
  % Monocytes: 6%
  % Monocytes, normalised data (day 1 = 100): 75
  CD4: 75 cells per mm^3
  CD4, normalised data (day 1 = 100): 94
  CD8: 880 cells per mm^3
  CD8, normalised data (day 1 = 100): 100
  Granulocytes: 4950 cells per mm^3
  Granulocytes, normalised data (day 1 = 100): 128
  Lymphocytes: 1250 cells per mm^3
  Lymphocytes, normalised data (day 1 = 100): 97
  Monocytes: 400 cells per mm^3
  Monocytes, normalised data (day 1 = 100): 89
  NK: 75 cells per mm^3
  NK, normalised data (day 1 = 100): 250
  White count: 6600 cells per mm^3
  White count, normalised data (day 1 = 100): 118
[13]
  % Granulocytes: 74.5%
  % Granulocytes, normalised data (day 1 = 100): 108
  % Lymphocytes: 20%
  % Lymphocytes, normalised data (day 1 = 100): 86
  % Monocytes: 5.5%
  % Monocytes, normalised data (day 1 = 100): 69
  CD4: 80 cells per mm^3
  CD4, normalised data (day 1 = 100): 100
  CD8: 730 cells per mm^3
  CD8, normalised data (day 1 = 100): 83
  Granulocytes: 4020 cells per mm^3
  Granulocytes, normalised data (day 1 = 100): 104
  Lymphocytes: 1050 cells per mm^3
  Lymphocytes, normalised data (day 1 = 100): 81
  Monocytes: 440 cells per mm^3
  Monocytes, normalised data (day 1 = 100): 98
  NK: 20 cells per mm^3
  NK, normalised data (day 1 = 100): 67
  White count: 5500 cells per mm^3
  White count, normalised data (day 1 = 100): 98
[14]
  CD4 and CD8 T cells, course after the rise: return to the pre-injection i levels six days later
  rise in CD4 T cells after the HEP1 injection: +50%
  rise in CD8 T cells after the HEP1 injection: +28%
Subcutaneous administration of one larger dose of HEP1 (FIG. 3)
  CD4+ and CD8+ T cells, course: sharp increase
